This assay addresses viral helicase (Hepatitis C virus (isolate H77), UniProt P27958). Description: Assay for Helicase Inhibition. The assay is classed as biochemical, HCV. As to conditions: average of three test results; read-out: IC50 (concentration required to achieve a 50% inhibition of helicase activity). The method, then: Anti-viral activity was measured on the basis of inhibition of helicase activity. The biological studies of the anti-viral activity of the compounds of the invention are described below.
Example 6 illustrates the efficacy of compounds of the invention in inhibiting the viral helicase activity.
Assay for Helicase Inhibition
The helicase inhibition assay was performed according to methodology of the type described, for example, in: Lain et al., Nucleic Acids Res. 18:7003-7006 (1991); Warrener et al., J. Virol. 69:1720-1726 (1995); Kim et al., Biochem. Biophys. Res. Comm. 214:160-166 (1995). The value given in Table 1 represent the average of three test results in which the concentrations of anti-viral compound required to achieve a 50% inhibition of helicase activity (IC50) were measured.

pIC50: −log10 of the molar value.

Sequence of viral helicase (P27958 1027-1657): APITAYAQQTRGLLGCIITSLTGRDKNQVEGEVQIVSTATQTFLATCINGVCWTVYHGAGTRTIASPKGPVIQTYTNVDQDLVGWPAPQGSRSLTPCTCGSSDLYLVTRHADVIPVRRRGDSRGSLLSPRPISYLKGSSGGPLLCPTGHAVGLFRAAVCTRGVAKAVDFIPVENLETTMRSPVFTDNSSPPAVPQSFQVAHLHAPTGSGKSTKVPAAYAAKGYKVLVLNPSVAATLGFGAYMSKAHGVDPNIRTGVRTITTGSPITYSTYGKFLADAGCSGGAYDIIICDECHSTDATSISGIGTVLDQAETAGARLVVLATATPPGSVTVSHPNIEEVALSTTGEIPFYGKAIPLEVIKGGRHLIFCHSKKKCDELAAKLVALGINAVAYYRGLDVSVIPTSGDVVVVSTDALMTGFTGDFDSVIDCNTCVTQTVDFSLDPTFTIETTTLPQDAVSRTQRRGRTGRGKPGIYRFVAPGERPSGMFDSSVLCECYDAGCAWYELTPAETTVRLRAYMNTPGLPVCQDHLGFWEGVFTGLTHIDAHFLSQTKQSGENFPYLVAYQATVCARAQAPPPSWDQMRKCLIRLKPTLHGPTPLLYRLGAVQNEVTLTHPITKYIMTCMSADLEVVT

For `c1cc(CN2CCC(C3=N[C@@H]4CCCC[C@H]4N3)CC2)ccc1CN1CCC(C2=N[C@@H]3CCCC[C@H]3N2)CC1` (relative stereo) [Example 3, 1,1'-[1,4-phenylenebis (methylene)]bis(4,4'-trans-(4,5,6,7,8,9-hexahydro)benzimidazoyl)piperidine], the pIC50 is 5.15.

The values above are taken from US5830905A, “Compounds, compositions and methods for treatment of hepatitis C” (Viropharma Incorporated, priority 1996, dated 1998).
